Laboratory results from patent US6291527A (priority 1998, dated 2001).
Entries after “also recorded” stand apart in the source; their conditions may differ. Where two headings read alike, the source gives them in different places.

Columns and labels:
[1] = synovial fluid, 50 mg oral; cited from earlier work
[2] = Ketoprofen gel, cited from earlier work
[3] = high quantities, intact and abraded skin, also long term; cited from earlier work
rat = conditions: cited from earlier work
prostaglandin E2 (PGE2) = assay: foreign body (sponge) method in the rat: PGE2 in the inflammatory exudate (immunoenzymatic assay); type: in vivo; conditions: rat, oral, 10 mg/kg, 8 hours
Method: (§1) These tests involved the use of 100 male CD strain rats (Charles River, Calco, LC, Italy) weighing 180±8 g. The animals were fasted for 12 hours (water ad libitum) before being used for the experiment.
(§2) The inflammatory reaction with the formation of exudate was induced by using sterilized polyester sponges (4×1.5×0.5 cm) soaked in carrageen dissolved at a 2% concentration in sterile physiological solution. The rats were anesthetized lightly with ether and two sponges per rat were implanted subcutaneously in a previously shaven dorsal area.
(§3) The sponges were removed 8 hours later after having sacrificed the animals by ether euthanasia, and immediately placed in large polyethylene 50 ml test tubes containing 10 ml of heparinized physiological solution. The test tubes were then subjected to centrifugation (1000 rotations; 15 minutes), followed by removal of the sponges and accurate measurement of the volume of the remaining fluid. Always using the Higgs et al. method, the acid lipids present in the fluid were extracted in chloroform with prior dilution in ethanol and acidification to pH 3. After complete evaporation of the chloroform, the remaining dry residue was dissolved in physiological solution and used for the immunoenzymatic assay of prostaglandin E2 (PGE2).
(§4) All the other reagents used for the tests were purchased from Merck-Bracco (Milan, Italy).

[4] = cited from earlier work
[5] = in vivo; cited from earlier work
[6] = 100 mg i.m., cited from earlier work
[7] = test system: inflammatory exudate (IE); assay: foreign body (sponge) method in the rat: inflammatory exudate volume; type: in vivo; conditions: rat, oral, 10 mg/kg, 8 hours
Method: as §1, §2, §3, §4

carrageen edema = carrageen edema test in the rat (hind paw volume, plethysmometer); conditions: rat, oral
[8] = 100 mg i.m., approx. 3 hours before operation; cited from earlier work
[9] = once a day for three days, 12 hours

## CC(C(=O)O)c1cccc(C(=O)c2ccccc2)c1 (stereo not drawn) [Ketoprofen, 3-Benzoyl-α-methylbenzeneacetic acid]
[1]
  time of synovial peak: approximately two hours after the plasma peak
[2]; 2nd hour, matrix not stated
  concentration when first detectable: 6.3 ng/mL
[2]; [9]
  concentration in capsular tissue: 2.36 µg/g
  concentration in intraarticular adipose tissue: 4.70 µg/g
  concentration in synovial fluid: 1.31 µg/g
[2]
  concentration in the joint vs systemic circulation: greater active substance concentration in the joint than in systemic circulation
  duration of constant values: 12 h
  time to peak concentration: after six hours
[3]
  tolerability / toxicity following dermal application: excellent tolerability and lack of acute and chronic toxicity; also recorded: did not induce any local or general harm
rat
  oral LD50: 165 mg/kg
Prostaglandin E2 (PGE2)
  % inhibition versus controls of PGE2: 49.7%
Prostaglandin E2 (PGE2); mean, controls 98.7 ± 4.7
  PGE2 concentration in the inflammatory exudate: 49.6 ng/mL
[4]; intramuscular
  time to peak concentration: ≤ 30 min
[4]; various routes of administration
  intraarticular concentrations vs serum and plasma, conclusion: reach peak levels later with respect to those observable in serum and plasma, but remain at higher levels than the latter for a longer period after treatment and always with higher values compared to those present in circulatory flow
[5]
  elimination with the feces: 1%
[6]; 15 minutes
  penetration into the joints: penetrates promptly into the joints
[6]; 3.5 hours
  serum and synovial concentration at equilibrium: 1.3 µg/mL
[6]
  mean resident time in the joints vs serum: about three times longer than that observed in serum
  time of equilibrium of serum and synovial concentrations: 3.5 h
[6]; serum
  AUC of the free Ketoprofen fraction in serum: 127 ng·h/mL
  time of maximum serum concentration: 30 min
[6]; synovial fluid
  AUC of the free Ketoprofen fraction in synovial fluid: 119 ng·h/mL
[7]
  % inhibition versus controls of IE: 58.6%
[7]; mean ± MSE, controls 5.15 ± 0.28
  IE (inflammatory exudate) volume: 2.13 ± 0.15 mL
Carrageen edema
  anti-inflammatory / anti-edematogenic effect: also resulted as having anti-inflammatory activity
Carrageen edema; 10 mg/kg, 1st hour, mean ± MSE
  evolution of paw volume (delta in ml) at 1st hour: 0.19 ± 0.02 mL
Carrageen edema; 10 mg/kg, 2nd hour, mean ± MSE
  evolution of paw volume (delta in ml) at 2nd hour: 0.33 ± 0.03 mL
Carrageen edema; 10 mg/kg, 3rd hour, mean ± MSE
  evolution of paw volume (delta in ml) at 3rd hour: 0.41 ± 0.02 mL
Carrageen edema; 10 mg/kg, 4th hour, mean ± MSE
  evolution of paw volume (delta in ml) at 4th hour: 0.42 ± 0.02 mL
Carrageen edema; 10 mg/kg, 5th hour, mean ± MSE
  evolution of paw volume (delta in ml) at 5th hour: 0.40 ± 0.03 mL
Carrageen edema; 10 mg/kg, 6th hour, mean ± MSE
  evolution of paw volume (delta in ml) at 6th hour: 0.37 ± 0.03 mL
Carrageen edema; 10 mg/kg, p < 0.001
  % inhibition vs controls (paw edema AUC): 54.1%
Carrageen edema; 10 mg/kg, paw volume (delta in ml) vs time (0 to 6 hours), controls 4.23 ± 0.26
  AUC (mean ± MSE) of increase in paw volume: 1.94 ± 0.10
[8]
  mean value in blood: 1.39 µg/g
  mean value in bone: 0.25 µg/g
  mean value in fat: 0.28 µg/g
  mean value in muscle: 0.26 µg/g
  mean value in synovial fluid: 0.85 µg/g
  mean value in synovial membrane: 0.32 µg/g
